This series can be described thus: PK of CNP compounds after i.v. and s.c. administration to rats. The note with it: male, Sprague Dawley, rat, in vivo. The protocol: In order to assess the i.v. and s.c. PK/PD profile of CNP compounds of the present invention, formulations of CNP compounds were administered to rats, blood samples taken and exposure and cGMP response measured.
Quantitative plasma analysis of CNP-compounds: Plasma concentrations of CNP compounds were assayed by plasma protein precipitation and analysed by turboflow liquid chromatography mass spectrometry (TF-LC-MS). Calibrators were prepared by spiking either blank rat or minipig plasma with the relevant CNP compound in the range from 0.5 to 2000 nM. Calibrators, plasma blanks or study samples were prepared for TF-LC-MS by protein precipitation by adding three or four volumes of either ethanol or methanol containing 20 nM of internal standard to one volume of sample. For some compounds, formic acid was added to the precipitation reagent (the final concentration was 1% v/v). After the addition of the precipitation reagent, the mixture was centrifuged at 6200 rpm at 4° C. for 30 minutes. After centrifugation, one volume of supernatant was mixed with two volumes of water (with 1% v/v formic acid). The mixture was analysed by TF-LC-MS using a Cyclone turboflow column (0.5×50 mm, ThermoFisher Scientific) and either a XBridge Protein BEH C4 3.5 μm 300 Åor a XBridge Protein BEH C18 3.5 μm 130 Åanalytical column (both were 50×2.1 mm and obtained from Waters). […] The mass spectrometer was operated in positive ionisation mode. A TSQ Altis mass spectrometer (ThermoFisher Scientific) was used as detector in selected reaction monitoring mode (specific transition were optimised for each CNP compound). Linear calibration curves (weighed 1/×2) were used for calculating the concentration in the plasma samples. Quality control samples were included. The deviation between nominal and calculated concentration in the calibrators and quality control samples were below 15%.
Animals and dosing: Groups of 4-6 rats (male, Sprague Dawley, 350 g at arrival, Janvier, France) per compound and route of administration were dosed with a CNP compound formulated either in A) 8 mM sodium phosphate, 250 mM glycerol, 0.007% polysorbate 20, pH 7.4 or B) 5 mM sodium acetate, 250 mM glycerol, 0.007% polysorbate 20, pH 4.0 depending on the respective compound. S.c. dose was 300 nmol/kg, at a concentration of […] resulting in a dosing volume of 0.3 mL/kg, whereas i.v. dose was 100 nmol/kg, at a concentration of […] resulting in a dosing volume of 1 mL/kg.
Sampling: Sublingual blood samples of 250 uL were collected from unanaesthetised rats in EDTA-coated vials (Microvette 600K3E ref #15.1673.100 Sarstedt) at baseline (-1 h before dosing) as well as 5 min (only i.v. dosed groups), 2 h, 6 h, 24 h, 48 h and 72 h (only for exposure analysis) post-dosing. The blood samples were quickly stored on ice and centrifuged (4° C., 8000 RPM, 5 min) within 10 min of collection. Plasma samples of 50 μL were transferred to each micronic tube for either exposure or cGMP analysis, kept on dry ice and stored in a freezer (−20° C.). Rats had access to food (Altromin) and tap water ad libitum.
Analysis: PK parameters were calculated by non-compartment analysis (NCA) using software Phoenix WinNonlin (ver. 8.1 or later, Certara) for each animal. Clearance (Cl) was calculated as: Dose/AUCinf (linear up, log down). […] Bioavailability was calculated as dose normalized AUC's: (AUC(sc)/Dose(sc))/(AUC(iv)/Dose(iv)). Values in the table are means from individual animals (n=4-6 individual animals). The subsequent plots for cGMP plasma concentration versus time are (Y-axis) mean cGMP concentration (n=4-6 individual animals) after IV dosing and (X-axis) nominal plasma sampling time.
Plasma cGMP are reported as the mean.

[1] abbreviates: iv, i.v., about 100 nmol/kg, read-out: Cl (L/hr/kg), i.v. administration (converted).
[2] abbreviates: iv, i.v., about 100 nmol/kg, read-out: T½ (hr), i.v. administration (converted).
Setting [3] is: sc, s.c. bioavailability, about 300 nmol/kg, read-out: F (%), s.c. administration.
[4] abbreviates: sc, s.c., about 300 nmol/kg, read-out: T½ (hr), s.c. administration (converted).

Molecules are shown by their SMILES. Read-outs that look alike come from different tables or passages of the source. Starred links: 1 amine or outer side, 2 acyl side, 3 side chain; linkers in the order of their positions; H or OH if unused. Positions of bridges follow the written chain, without caps; N, C: chain ends. Residues, ends and D or L forms follow the SMILES beside them. *: point of attachment. C18 diacid = O=C(O)CCCCCCCCCCCCCCCCC(=O)*; γGlu = O=C(O)[C@H](CCC(=O)[*:2])N[*:1]; AEEA = NCCOCCOCC(=O)O

Take `CC[C@H](C)[C@@H]1NC(=O)[C@H](CCCNC(=N)N)NC(=O)[C@H](CCC(=O)O)NC(=O)[C@H](CC(C)C)NC(=O)[C@H](CCCCN)NC(=O)[C@H](CC(C)C)NC(=O)CNC(=O)[C@H](Cc2ccccc2)NC(=O)[C@@H](NC(=O)CNC(=O)[C@H](CCCCN)NC(=O)[C@H](CO)NC(=O)[C@H](CC(C)C)NC(=O)CNC(=O)[C@H](CCCCN)NC(=O)[C@H](CCCCN)NC(=O)[C@H](CCC(N)=O)NC(=O)[C@H](C)NC(=O)CNC(=O)[C@H](CCCCN)NC(=O)[C@H](Cc2ccc(O)cc2)NC(=O)[C@H](CCCCN)NC(=O)[C@H](CCCNC(=N)N)NC(=O)[C@H](C)NC(=O)COCCOCCNC(=O)COCCOCCNC(=O)CC[C@H](NC(=O)CCCCCCCCCCCCCCCCC(=O)O)C(=O)O)CSSC[C@@H](C(=O)O)NC(=O)CNC(=O)[C@H](CC(C)C)NC(=O)CNC(=O)[C@H](CO)NC(=O)[C@H](CC(C)C)NC(=O)[C@H](CO)NC(=O)CNC1=O` [compound 0776] ({C18 diacid-γGlu-AEEA-AEEA}-ARKYKGAQKKGLSKGCFGLKLERIGSLSGLGC-OH; disulfide 16-32): where the note is “iv, 100 nmol/kg”, the clearance was 0.00613 L/h/kg and the half-life was 10.7 h. Further, for the setting “sc, 300 nmol/kg”, the bioavailability was 7.35% and the half-life is 5.63 h.

As to `CC[C@H](C)[C@@H]1NC(=O)[C@H](CCCNC(=N)N)NC(=O)[C@H](CC(=O)O)NC(=O)[C@H](CC(C)C)NC(=O)[C@@H]2CCCN2C(=O)[C@H](CC(C)C)NC(=O)CNC(=O)[C@H](Cc2ccccc2)NC(=O)[C@@H](NC(=O)CNC(=O)[C@H](CCCCN)NC(=O)[C@H](CO)NC(=O)[C@H](CC(C)C)NC(=O)CNC(=O)[C@H](CCCCN)NC(=O)[C@H](CCCCN)NC(=O)[C@H](CCC(N)=O)NC(=O)[C@H](C)NC(=O)CNC(=O)[C@H](CCC(=O)O)NC(=O)[C@H](Cc2ccc(O)cc2)NC(=O)COCCOCCNC(=O)COCCOCCNC(=O)CC[C@H](NC(=O)CCCCCCCCCCCCCCCCC(=O)O)C(=O)O)CSSC[C@@H](C(=O)O)NC(=O)CNC(=O)[C@H](CC(C)C)NC(=O)CNC(=O)[C@H](CO)NC(=O)[C@H](CC(C)C)NC(=O)[C@H](CO)NC(=O)CNC1=O` [compound 1225] ({C18 diacid-γGlu-AEEA-AEEA}-YEGAQKKGLSKGCFGLPLDRIGSLSGLGC-OH; disulfide 13-29), the clearance under setting [1] is 0.0103 L/h/kg. In addition, the half-life is 5.03 h under setting [2] and 5.1 h under setting [4]. Moreover, the bioavailability under setting [3] is 61.2%.

`CC[C@H](C)[C@@H]1NC(=O)[C@H](CCCNC(=N)N)NC(=O)[C@H](CC(=O)O)NC(=O)[C@H](CC(C)C)NC(=O)[C@@H]2CCCN2C(=O)[C@H](CC(C)C)NC(=O)CNC(=O)[C@H](Cc2ccccc2)NC(=O)[C@@H](NC(=O)CNC(=O)[C@H](CO)NC(=O)[C@H](CO)NC(=O)[C@H](CC(C)C)NC(=O)CNC(=O)[C@H](CCCCN)NC(=O)[C@H](CCCCN)NC(=O)[C@H](CCC(N)=O)NC(=O)[C@H](C)NC(=O)CNC(=O)[C@H](CCC(=O)O)NC(=O)[C@H](Cc2ccc(O)cc2)NC(=O)COCCOCCNC(=O)COCCOCCNC(=O)CC[C@H](NC(=O)CCCCCCCCCCCCCCCCC(=O)O)C(=O)O)CSSC[C@@H](C(=O)O)NC(=O)CNC(=O)[C@H](CC(C)C)NC(=O)CNC(=O)[C@H](CO)NC(=O)[C@H](CC(C)C)NC(=O)[C@H](CO)NC(=O)CNC1=O` [compound 1227] ({C18 diacid-γGlu-AEEA-AEEA}-YEGAQKKGLSSGCFGLPLDRIGSLSGLGC-OH; disulfide 13-29): under setting [1], the clearance is 0.0168 L/h/kg. For the same molecule, under setting [2], the half-life is 3.56 h.

As to `CC[C@H](C)[C@@H]1NC(=O)[C@H](CCCNC(=N)N)NC(=O)[C@H](CC(=O)O)NC(=O)[C@H](CC(C)C)NC(=O)[C@@H]2CCCN2C(=O)[C@H](CC(C)C)NC(=O)CNC(=O)[C@H](Cc2ccccc2)NC(=O)[C@@H](NC(=O)CNC(=O)[C@H](CO)NC(=O)[C@H](CO)NC(=O)[C@H](CC(C)C)NC(=O)CNC(=O)[C@H](CCCCN)NC(=O)[C@H](CCCCN)NC(=O)[C@H](CCC(N)=O)NC(=O)[C@H](C)NC(=O)CNC(=O)[C@H](CCCCN)NC(=O)[C@H](Cc2ccc(O)cc2)NC(=O)COCCOCCNC(=O)COCCOCCNC(=O)CC[C@H](NC(=O)CCCCCCCCCCCCCCCCC(=O)O)C(=O)O)CSSC[C@@H](C(=O)O)NC(=O)CNC(=O)[C@H](CC(C)C)NC(=O)CNC(=O)[C@H](CO)NC(=O)[C@H](CC(C)C)NC(=O)[C@H](CO)NC(=O)CNC1=O` [compound 1233] ({C18 diacid-γGlu-AEEA-AEEA}-YKGAQKKGLSSGCFGLPLDRIGSLSGLGC-OH; disulfide 13-29), under setting [1], the clearance was 0.0246 L/h/kg. Also, the half-life was 1.42 h under setting [2] and 3.57 h under setting [4]. Moreover, under setting [3], the bioavailability came out at 33.8%.

Under “iv, 100 nmol/kg”, `CC[C@H](C)[C@@H]1NC(=O)[C@H](CCCNC(=N)N)NC(=O)[C@H](CC(=O)O)NC(=O)[C@H](CC(C)C)NC(=O)[C@H](CCCCN)NC(=O)[C@H](CC(C)C)NC(=O)CNC(=O)[C@H](Cc2ccccc2)NC(=O)[C@@H](NC(=O)CNC(=O)[C@H](CCCCN)NC(=O)[C@H](CO)NC(=O)[C@H](CC(C)C)NC(=O)CNC(=O)[C@H](CCCCN)NC(=O)[C@H](CCCCN)NC(=O)[C@H](CCC(N)=O)NC(=O)[C@H](C)NC(=O)CNC(=O)[C@H](Cc2c[nH]cn2)NC(=O)[C@H](CCC(=O)O)NC(=O)COCCOCCNC(=O)COCCOCCNC(=O)CC[C@H](NC(=O)CCCCCCCCCCCCCCCCC(=O)O)C(=O)O)CSSC[C@@H](C(=O)O)NC(=O)CNC(=O)[C@H](CC(C)C)NC(=O)CNC(=O)[C@H](CO)NC(=O)[C@H](CC(C)C)NC(=O)[C@H](CO)NC(=O)CNC1=O` [compound 1235] had a clearance of 0.0115 L/h/kg and a half-life of 6.2 h. Where the note is “sc, 300 nmol/kg”, this molecule had a bioavailability of 65.8% and a half-life of 6.28 h.

With `CC[C@H](C)[C@@H]1NC(=O)[C@H](CCCNC(=N)N)NC(=O)[C@H](CC(=O)O)NC(=O)[C@H](CC(C)C)NC(=O)[C@@H]2CCCN2C(=O)[C@H](CC(C)C)NC(=O)CNC(=O)[C@H](Cc2ccccc2)NC(=O)[C@@H](NC(=O)CNC(=O)[C@H](CO)NC(=O)[C@H](CO)NC(=O)[C@H](CC(C)C)NC(=O)CNC(=O)[C@H](CCCCN)NC(=O)[C@H](CCCCN)NC(=O)[C@H](CCC(N)=O)NC(=O)[C@H](C)NC(=O)CNC(=O)[C@H](Cc2c[nH]cn2)NC(=O)[C@H](Cc2ccc(O)cc2)NC(=O)COCCOCCNC(=O)COCCOCCNC(=O)CC[C@H](NC(=O)CCCCCCCCCCCCCCCCC(=O)O)C(=O)O)CSSC[C@@H](C(=O)O)NC(=O)CNC(=O)[C@H](CC(C)C)NC(=O)CNC(=O)[C@H](CO)NC(=O)[C@H](CC(C)C)NC(=O)[C@H](CO)NC(=O)CNC1=O` [compound 1241] ({C18 diacid-γGlu-AEEA-AEEA}-YHGAQKKGLSSGCFGLPLDRIGSLSGLGC-OH; disulfide 13-29), under setting [1], the clearance was 0.0164 L/h/kg. Further, under setting [2], the half-life is 2.78 h.

These data come from patent US20240209028A1, “CNP COMPOUNDS” (priority 2022, published 2024).
